SMILES strings stand for the structures.

This note sets out measurements from patent US20250275938A1, “COMPOSITIONS AND METHODS FOR TREATMENT OF CANCER” (SCIROSBIO (FZC), priority 2022, published 2025).

Data set [1] relates to U87MG human glioma cell line. Put plainly: MTT cell viability assay, U87MG. The format is cell-based. The protocol:
(§1) Cell lines and culture conditions. A human glioma cell line, U87MG, a rat glioma cell line, C6, and normal HEK293T (Human Embryonic Kidney) cells were obtained from National Centre for Cell Science (NCCS), Pune, India. The cells were sub-cultured in Dulbecco's Modified Eagle's Medium (DMEM) supplemented with 10% FBS at 5% CO2 and 37° C. At 85% confluence, the cells were harvested using 0.25% trypsin and seeded in 25 cm^2 flasks, 96 well, and 6-well plates, according to the experiment being performed. The cells were allowed to attach 70% to the surface prior to treatment. A stock solution of all the drugs (10 mg/ml) was made in a vehicle and diluted to the required concentrations. Suspensions were aspirated 10 times before treatment. Cells treated with vehicle control were used as a control.
(§2) Cell viability assay. U87MG and C6 cells (5×10^3 cells/ml) were seeded in 96-well plates and exposed to different individual-drug treated groups with varying concentrations (0, 10, 40, 80, 120, and 160 μM) for a period of 24 hours, whereas HEK293T cells (5×10^3 cells/ml) were seeded at the inhibitory concentration (IC) at 50% of drugs, either alone or in combination. The individual-treated groups include Group I: untreated control glioma cells; Group II: TMZ-treated glioma cells; Group III: MET-treated glioma cells; and Group IV: EGCG-treated glioma cells.
(§3) After a 24 hour treatment period, the cells were allowed to react with MTT for 4 hours in dark at 37° C. At the end of the incubation period, the dark purple formazan crystals formed were solubilized with DMSO and the absorbance was measured spectrophotometrically at 595 nm (Molecular Devices Spectra-Max M5, USA). The experiments were repeated at least three times. To determine the cell viability, the percentage of viability was calculated as follows:
(§4) % viability=[(Optical density {OD} of treated cells−OD of Blank)/(OD of control−OD of blank)]×100.
(§5) Calculation of IC50 value. The IC50 of a drug was determined using y=m(x)+c equation (where: ‘y’ & ‘x’ are the respective coordinates of y & x-axis, ‘m’ is the slope and ‘c’ is the constant) derived from the trendlines of each scattered plots MMT assay. […] The IC50 and IC25 were also calculated for the dual combinations. The IC50 for the triple combination was calculated by keeping the IC25 of the dual-combination constant, and the third drug was used in varying concentrations (0, 10, 40, 80, 120, and 160 μM) (Table 1).
(§6) Combination index of drugs. According to the Chou-Talalay method, The statistical Combination Index (CI) of the drugs was performed according to the Chou-Talay method (Ma et al, Stem Cell Reports, 2017 9(6):1948-1960) to determine whether various drug combinations were synergistic, additive, or antagonistic, as shown in Table 1. This was performed for Groups V-IX using the following formula:
(§7) Combination index (CI) of Drugs 1 & 2=(IC50 of drug-1 in combination/IC50 of drug-1 individually)+(IC50 of drug-2 in combination/IC50 of drug-2 individually).
(Formazan colour is commonly taken as a measure of viable cells.)

The next data set relates to C6 rat glioma cell line. Put plainly: MTT cell viability assay, C6. The format is cell-based. The method, then:
as §1, §2, §3, §4, §5, §6, §7

For data set [2], the system named is HEK293T (Human Embryonic Kidney) cells. Put plainly: Trypan blue exclusion cytotoxicity on normal cell line. The format is cell-based. To be noted: treated at IC50 values determined in U87MG and C6, 24 hours. The protocol: Cytotoxicity on a normal cell line.
Furthermore, to check for the cytotoxicity of the drugs, a trypan blue dye exclusion assay was performed on a normal cell line, HEK293T, using the IC50 values of each drug, individually and in combination, as determined in U87MG and C6 cells and shown in Table 2.

The subject of another data set is VEGF. As to the kind of experiment: Immunohistochemistry of tumor sections, VEGF. The format is in vivo, rat. To be noted: i.p. 7 days; tumor-control 73.58%. The protocol: Immunohistochemistry. For immunohistochemistry (IHC) analysis, 4 μm thick tissue sections were deparaffinized in xylene and hydrated by immersing in a series of graded ethanol concentration (100%, 95%, 75% and 50%). Endogenous peroxidase activity was blocked by incubating sections in 3% H2O2 solution prepared in methanol at room temperature for 10 minutes and were washed with PBS twice for 5 minutes each. Antigen retrieval was performed by immersing the slides in 300 ml of retrieval buffer (10 mM citrate buffer, pH 6.0) for one hour at 100° C. and were rinsed twice in PBS. Sections were then incubated with approximately 100 μl diluted primary antibodies of Ki67 (1:100 dilution, Elabscience, Wuhan, China) and Vascular Endothelial Growth Factor (VEGF) (1:100 dilution, Elabscience, Wuhan, China) for 30 minutes at room temperature. The slides were then washed twice with PBS and were then incubated with approximately 100 μl of diluted secondary antibody (Cat No. E-IR-R213, Elabscience, Wuhan, China) at room temperature for 30 minutes. Slides were then washed in PBS for 5 minutes, followed by incubation with approximately 100 μl diluted Horse Radish Peroxidase (HRP) conjugate for 30 minutes. […] The staining intensities were quantified using IHC Profiler, a plugin in ImageJ software, to determine the H-score (Histo score).

The subject of a further data set is Ki67. As to the kind of experiment: Immunohistochemistry of tumor sections, Ki67. The format is in vivo, rat. To be noted: i.p. 7 days; tumor-control 36.73%.
Data set [3] is described as follows: LC/MS of drugs and active metabolites in plasma and brain (blood brain barrier). The format is in vivo, rat. To be noted: for Detected mass in LC-MS Plasma / Detected mass in LC-MS Brain: NA = not detected. The protocol:
T, M & E (Sigma Aldrich, St. Louis, USA) were dissolved in sterile water and administered intra peritoneally for 7 days (from day 21 to day 27; where the day of tumor induction is considered day 0) to a rat with the dose specified in Table-4 (TME: 50+80+150 mg/kg body weight). After 7 days of treatment (on day 28), blood (plasma) was collected and the rat was euthanized, immediately the brain tissue was collected and stored at −80° C. The brain tissue was then processed accordingly to measure active metabolites through LC/MS.
To 100 μl of plasma or brain (0.5 g crushed in 0.5 mL of sterile water), 20 μl of the working internal standard solution was added. The samples were deproteinised with acetonitrile and the supernatant (100 μl) was injected into the chromatographic system. For the brain, as described above, ciprofloxacin solution (20 μl) was added to 100 μl of crushed brain. Then, repeating the plasma sample process, 20 μl of the solution was injected into the chromatographic system.

Data set [4] concerns human pancreatic cancer (PANC1) cells. As to the kind of experiment: MTT cell viability assay, PANC1. The format is cell-based. To be noted: 24 hours. The protocol: Cell lines and culture conditions: A human pancreatic cancer cell line PANC1 and human colon cancer cell line HCT116 were obtained from National Centre for Cell Science (NCCS), Pune, India. The PANC1 cells were sub-cultured in Dulbecco's Modified Eagle's Medium (DMEM) supplemented with 10% FBS at 5% C02 and 37° C. The HCT116 cells were sub-cultured in McCoy's 5A media supplemented with 10% FBS at 5% CO2 and 37° C. […] The cells were allowed to attach 70% to the surface prior to treatment. […] Suspensions were aspirated 10 times before treatment. Cells treated with vehicle control were used as a control. Cell viability assay: PANC1 and HCT116 cells ([…] cells/ml) were seeded in 96-well plates and exposed to different individual-drug treated groups with varying concentrations (0, 20, 40, 60, 80, 100, 120, 140, 160, 180 and 200 μM) for a period of 24 hours. The individual-treated groups include Group I: 5 Fluorouracil (5FU)-treated PANC1 and HCT116 cells; Group II: MET-treated PANC1 and HCT116 cells; Group III: EGCG-treated PANC1 and HCT116 cells and Group IV: 5FU+[…] PANC1 and HCT116 cells.

Data set [5] has as its system human hepatocellular carcinoma (HepG2) cells. Put plainly: MTT cell viability assay, HepG2. The format is cell-based. To be noted: 24 hours. The protocol: Cell lines and culture conditions. A human hepatocellular carcinoma (HepG2) and ovarian cancer (SKOV3) cells were obtained from National Centre for Cell Science (NCCS), Pune, India. The cells HepG2 and SKOV3 were sub-cultured in Eagle's Minimum Essential Medium (EMEM) and McCoy's 5a supplemented with 10% FBS at 5% CO2 and 37° C. […] The cells were allowed to attach 70% to the surface prior to treatment. A stock solution of all the drugs (10 mg/ml) was made in distilled H2O and diluted to the required concentrations. Suspensions were aspirated 10 times before treatment. Cells treated with vehicle control were used as a control.

In data set [6] the test system is human breast cancer (MDA-MB-453) cells. Put plainly: MTT cell viability assay, MDA-MB-453. The data set is classed as cell-based. To be noted: 24 hours. The protocol:
Cell lines and culture conditions: A human breast cancer cell line MDA-MB-453 and human bone cancer cell line SaoS2 were obtained from National Centre for Cell Science (NCCS), Pune, India. The MDA-MB-453 cells were sub-cultured in Dulbecco's Modified Eagle's Medium (DMEM) supplemented with 10% FBS at 5% CO2 and 37° C. The SaoS2 cells were sub-cultured in McCoy's 5A media supplemented with 10% FBS at 5% CO2 and 37° C. […] The cells were allowed to attach 70% to the surface prior to treatment. […] Suspensions were aspirated 10 times before treatment. Cells treated with vehicle control were used as a control. Cell viability assay: MDA-MB-453 and SaoS2 cells (5×10^3 cells/ml) were seeded in 96-well plates and exposed to different individual-drug treated groups with varying concentrations (0, 20, 40, 60, 80, 100, 120, 140, 160, 180 and 200 μM) for a period of 24 hours.

Where [7] appears, read: as used in the triple combination for CI.
Where [8] appears, read: triple combination TME 50+80+150 mg/kg i.p. 7 days.
Where [9] appears, read: individually treated T, M and E, i.p. 7 days.

On to `Cn1nnc2c(C(N)=O)ncn2c1=O` [TMZ, 3-methyl-3-oxoimidazo[5,1-d] [1,2,3,5] tetrazine-8-carboxamide], for which the IC50 in [1] (Homo sapiens, U-87 MG, individual drug, 24 hours, mean ± SD, no unit in table, test concentrations given in μM, read-out: Inhibitory Concentration at 50% (IC50) U87MG Cells) is 77 ± 1.14 µM; in the data set with C6 rat glioma cell line (Rattus norvegicus, C6, individual drug, 24 hours, mean ± SD, no unit in table, test concentrations given in μM, read-out: Inhibitory Concentration at 50% (IC50) C6 Cells) it was 72 ± 1.32 µM. Also, the “IC25 U87MG” value in data set [1] (setting [7]) stood at 18.94 µM. For the same compound, the “IC25 C6” value in the data set with C6 rat glioma cell line (setting [7]) amounted to 31.76 µM. Moreover, the “toxicity in normal HEK293T cells” value in data set [2] is “higher toxicity”. Also, the “cytoplasmic positivity for VEGF (H-score)” value in the data set with VEGF came to 25.83%. For the same compound, the “Ki67 nuclear positivity rate” value in the data set with Ki67 came to 13.14%. The “transport across the blood brain barrier, in words” value in [3] (administered individually and in combination) is “crossed BBB in the form of their active metabolites”. Moreover, the “Detected mass in LC-MS Plasma” value in [3] (setting [8]) amounted to 198.93.

Take `NC(=O)c1[nH]cnc1N` [AIC, 5-amino-imidazole-4-carboxamide]: in [3] (setting [9]), the “Detected mass in LC-MS Brain” value is on record as 123.09 and the “Detected mass in LC-MS Plasma” value is given as 127.02. In addition, in data set [3] (setting [8]), the “Detected mass in LC-MS Brain” value was determined as 123.05 and the “Detected mass in LC-MS Plasma” value is 127.02.

For `O=c1[nH]cc(F)c(=O)[nH]1` [5FU, 5-Fluorouracil], in data set [4], the “cell viability (MTT), in words” value was “reduction in cell viability in a dose-dependent fashion”.

Turning to `CNC(=O)c1cc(Oc2ccc(NC(=O)Nc3ccc(Cl)c(C(F)(F)F)c3)cc2)ccn1` [SOR, Sorafenib], the “cell viability (MTT), in words” value in data set [5] is reported as “reduction in cell viability in a dose-dependent fashion”.

`COc1cccc2c1C(=O)c1c(O)c3c(c(O)c1C2=O)C[C@@](O)(C(=O)CO)C[C@@H]3O[C@H]1C[C@H](N)[C@H](O)[C@H](C)O1` [DOX, Doxorubicin]: the “cell viability (MTT), in words” value in data set [6] is “reduction in cell viability in a dose-dependent fashion”.
